Test results as given in ChEMBL document CHEMBL5257111, “Ribosome-targeting antibiotics and resistance via ribosomal RNA methylation” (RSC Med Chem, 2023).

Key:
[1] = Binding affinity to Enterococcus faecalis ErmAM methyltransferase assessed as inhibition constant
[2] = target: T1, Catechol O-methyltransferase (Homo sapiens, UniProt P21964); test: Inhibition of S-COMT (unknown origin)
T1 sequence (P21964 whole entry): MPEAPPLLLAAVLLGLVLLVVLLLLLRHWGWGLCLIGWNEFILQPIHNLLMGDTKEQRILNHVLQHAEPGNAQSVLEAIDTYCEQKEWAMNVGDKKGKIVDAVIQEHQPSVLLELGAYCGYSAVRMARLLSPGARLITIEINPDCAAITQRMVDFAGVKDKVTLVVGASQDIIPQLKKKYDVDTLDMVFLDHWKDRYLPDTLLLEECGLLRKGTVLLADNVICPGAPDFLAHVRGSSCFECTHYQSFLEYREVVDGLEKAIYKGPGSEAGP

[3] = target: rRNA adenine N-6-methyltransferase (Bacillus subtilis, UniProt P13956); test: Inhibition of Bacillus subtilis ErmC' methyltransferase
Chain of rRNA adenine N-6-methyltransferase (P13956 whole entry): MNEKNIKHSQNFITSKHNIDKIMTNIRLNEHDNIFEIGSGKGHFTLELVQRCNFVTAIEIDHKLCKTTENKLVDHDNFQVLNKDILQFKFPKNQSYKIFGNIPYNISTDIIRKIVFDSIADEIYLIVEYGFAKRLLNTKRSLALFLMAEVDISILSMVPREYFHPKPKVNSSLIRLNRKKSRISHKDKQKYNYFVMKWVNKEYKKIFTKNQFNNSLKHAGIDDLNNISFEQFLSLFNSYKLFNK

Escherichia coli [4] = test: Antibacterial activity against Escherichia coli ATCC 8730 assessed as bacterial growth inhibition; assay type: functional
Klebsiella pneumoniae = test: Antibacterial activity against Klebsiella pneumoniae ATCC 10031 assessed as reduction in microbial growth; assay type: functional
Citrobacter amalonaticus = test: Antibacterial activity against Citrobacter amalonaticus assessed as reduction in microbial growth; assay type: functional
Acinetobacter baumannii = test: Antibacterial activity against Acinetobacter baumannii assessed as reduction in bacterial growth by broth microdilution method; assay type: functional
Enterobacter cloacae = test: Antibacterial activity against Enterobacter cloacae ATCC 29893 assessed as reduction in microbial growth; assay type: functional
Klebsiella aerogenes = test: Antibacterial activity against Enterobacter aerogenes ATCC 13048 assessed as reduction in bacterial growth; assay type: functional
Escherichia coli [5] = test: Antimicrobial activity against Escherichia coli ATCC 8739 assessed as reduction in bacterial growth; assay type: functional
Escherichia coli [6] = test: Antimicrobial activity against Escherichia coli ATCC 25922 assessed as bacterial growth inhibition; assay type: functional

Molecule: Nc1cccc(-c2nc(N)nc(NC3Cc4ccccc4C3)n2)c1
- Ki [1]: 4 µM

Molecule: O=C(Nc1cccc(-c2nc3ccccc3[nH]2)c1)c1ccccc1
- IC50 [2]: 26 µM

Molecule: COc1ccc(C(=O)Nc2cccc(-c3nc4ccccc4[nH]3)c2)cc1
- IC50 [2]: 73 µM

Molecule: Nc1nc(NC2Cc3ccccc3C2)nc(N2CCC(C(=O)NCCc3c[nH]c4ccccc34)CC2)n1
- Ki [1]: 2 µM

Molecule: Cc1ccc(Sc2cc(C)c(C#N)c(Sc3ccc(C)cc3)n2)cc1
- IC50 [3]: 180 µM

Molecule: O=C1c2ccccc2C(=O)N1CN(CCCn1ccnc1)CN1C(=O)c2ccccc2C1=O
- IC50 [3]: 300 µM

Molecule: O=C(c1c[nH]c(=O)[nH]1)N1CCN(c2ccc(C(F)(F)F)cn2)CC1
- IC50 [3]: 100 µM

Molecule: O=C(c1cnc(Nc2ncccn2)s1)N1CCN(c2ccc(C(F)(F)F)cn2)CC1
- IC50 [3]: 110 µM

Molecule: C(=N\Nc1ncnc2c1nnn2Cc1ccccc1)/c1ccccc1
- IC50 [3]: 250 µM

Molecule: Cc1ccc(Nc2ncc(C(=O)N3CCN(c4ccc(C(F)(F)F)cn4)CC3)s2)nc1
- IC50 [3]: 116 µM

Molecule: NCC[C@H](O)C(=O)N[C@@H]1C[C@H](N)[C@@H](O[C@H]2O[C@H](CN)[C@@H](O)[C@H](O)[C@H]2O)[C@H](O)[C@H]1O[C@H]1O[C@H](CO)[C@@H](O)[C@H](N)[C@H]1O [AMIKACIN]
- MIC (Escherichia coli [4]): > 512 µg/mL
- MIC (Klebsiella pneumoniae): > 512 µg/mL
- MIC (Citrobacter amalonaticus): > 512 µg/mL
- MIC (Acinetobacter baumannii): > 256 µg/mL
- MIC (Enterobacter cloacae): > 512 µg/mL
- MIC (Klebsiella aerogenes): > 512 µg/mL

Molecule: NC[C@@H]1O[C@H](O[C@H]2[C@@H](O)[C@H](O[C@@H]3[C@@H](O)[C@H](N)C[C@H](N)[C@H]3O[C@H]3O[C@H](CN)[C@@H](O)[C@H](O)[C@H]3N)O[C@@H]2CO)[C@H](N)[C@@H](O)[C@@H]1O [FRAMYCETIN]
- MIC (Escherichia coli [5]): > 256 µg/mL

Molecule: NC[C@H]1O[C@H](O[C@H]2[C@H](O)[C@@H](O[C@H]3O[C@H](CO)[C@@H](O)[C@H](N)[C@H]3O)[C@H](N)C[C@@H]2N)[C@H](O)[C@@H](O)[C@@H]1O [KANAMYCIN]
- MIC (Escherichia coli [6]): > 256 µg/mL

Molecule: OC[C@H]1O[C@@H](n2cnc3c(NC4CCCC4)ncnc32)[C@H](O)[C@@H]1O [N6-CYCLOPENTYLADENOSINE]
- IC50 [3]: 80 µM

Molecule: NC[C@H]1O[C@H](O[C@H]2[C@H](O)[C@@H](O[C@H]3O[C@H](CO)[C@@H](O)[C@H](N)[C@H]3O)[C@H](N)C[C@@H]2N)[C@H](N)C[C@@H]1O [TOBRAMYCIN]
- MIC (Escherichia coli [4]): > 512 µg/mL
- MIC (Klebsiella pneumoniae): > 512 µg/mL
- MIC (Citrobacter amalonaticus): > 512 µg/mL
- MIC (Enterobacter cloacae): > 512 µg/mL
- MIC (Klebsiella aerogenes): > 512 µg/mL

Molecule: GENTAMICIN
- MIC (Escherichia coli [4]): > 512 µg/mL
- MIC (Klebsiella pneumoniae): > 512 µg/mL
- MIC (Citrobacter amalonaticus): > 512 µg/mL
- MIC (Escherichia coli [6]): > 256 µg/mL
- MIC (Enterobacter cloacae): > 512 µg/mL
- MIC (Klebsiella aerogenes): > 512 µg/mL
